Measured values published in patent US20040176466A1, “Combination therapy for the treatment of neurological disorders” (priority 2001, published 2004).
Where “and” joins values, the source holds several entries; their conditions need not be identical. Identical values can stand only once. Like-named read-outs stand apart in the source and are kept apart here.

Experiments:
[1] = Steady-state pharmacokinetics of atomoxetine alone and coadministered with paroxetine in CYP2D6 extensive metabolizers; assay type: in vivo; conditions: both sexes, human, plasma, oral; for AUC: read-out: AUC0-τ; for Vd/F: read-out: Vz/F
Description: The study was conducted at the Lilly Laboratory for Clinical Research in Indianapolis, Ind. The protocol and informed consent documents were approved by the Institutional Review Board of Indiana University—Purdue University at Indianapolis. The study was conducted in accordance with the Declaration of Helsinki. All participants provided informed written consent before enrollment into the study. All volunteers were considered to be healthy on the basis of medical history, electrocardiographic findings, and routine clinical laboratory tests. Volunteers with clinically abnormal results were excluded from the study.
Only CYP2D6 extensive metabolizers, as determined by genotyping and phenotyping analyses, were entered in this study. CYP2D6 genotype was performed by PPGx (Morrisville, N.C.). DNA from whole blood samples were isolated and purified and analyzed for CYP2D6 genotype using a validated PCR ([…]) method. CYP2D6 genotype was evaluated by testing the *3, *4, *5, *6, *7, and *8 poor metabolizer (PM) alleles. If patients were homozygous for any combination of these alleles, a PM genotype was assigned; otherwise, an extensive metabolizer genotype (EM) was assigned. CYP2D6 phenotype was performed using the urine ratio of dextromethorphan/dextrorphan following an oral dose of dextromethorphan. Volunteers with a ratio greater than 0.3 were assigned a PM phenotype, and those with a ratio less than 0.3 were assigned an EM phenotype.
This was a single-blind, sequential study composed of two periods. […] Doses were administered with 240 mL of water.
Pharmacokinetic parameter estimates were calculated with noncompartmental analysis by using WinNonlin Professional Version 2.1 (Pharsight Corp, Mountain View, Calif.). The steady state maximum plasma concentration (Css,max), and the corresponding time of the maximum concentration (Tmax) were observed values. The elimination rate constant (λz) was determined as the slope of the linear regression for the terminal log-linear portion of the concentration-time curve. Terminal half-life (t1/2) was calculated as ln(2)/λz. The area under the plasma concentration time curve (AUC0-τ) over the dosing interval was estimated by the linear trapezoidal method. […] Apparent clearance (CLss/F) and apparent volume of distribution (Vz/F) were calculated as Dose/AUC0-τ and as (CLss/F)/λz, respectively.
Except for Tmax, all parameters were log transformed, and a mixed-effect analysis of variance was performed with subject as a random effect. […] For Tmax, a Wilcoxon sign-rank test was performed. Data from all subjects who received study drug are included in the pharmacokinetic and statistical analyses, except for the Tmax analyses that excluded subjects with measurements for only one treatment. Statistical analyses were performed with SAS Version 6.12 (SAS Institute, Cary, N.C.).

ADHD = assay: Study of atomoxetine versus placebo in the treatment of ADHD; assay type: in vivo, human
From the text: Inter-individual variability in drug metabolism poses a challenge in predicting dosing, safety, and efficacy of a drug. Pharmacokinetic factors, as well as substantial intersubject pharmacodynamic variability, have been proposed as a factor in cases of therapeutic failure of methylphenidate (DeVane, et al., Journal of Clinical Psychopharmacology, 20(3), 347 (2000)).

[2] = cited from earlier work

With `CNCC[C@@H](Oc1ccccc1C)c1ccccc1` [Atomoxetine, (R)-(−)-N-methyl-3-(2-methylphenoxy)-3-phenylpropylamine] as the compound, how does the half-life ([1]; 20 mg, atomoxetine alone) read?
Its half-life is 3.92 h.

What about the half-life ([1]; 20 mg, atomoxetine alone (Period 1), steady state, mean (range), n = 21) of the same compound?
Its half-life is 4.03 h.

And the Tmax ([1]; 20 mg, atomoxetine alone (Period 1), steady state, median (range), n = 21, read-out: Tmax)?
The Tmax was 1 h.

And the AUC ([1]; 20 mg)?
The AUC was 846 ng·h/mL.

And the Vd/F ([1]; 20 mg)?
Its Vd/F is 2.2 L/kg.

And the half-life ([1]; after concomitant paroxetine administration)?
Its half-life is 10 h.

And the half-life ([1]; atomoxetine with paroxetine (Period 2), steady state, mean (range), n = 14)?
Its half-life is 11 h.

What about the Tmax ([1]; atomoxetine with paroxetine (Period 2), steady state, median (range), n = 14, read-out: Tmax) of the same compound?
The Tmax was 1.5 h.

And the Tmax ([1]; atomoxetine with paroxetine versus atomoxetine alone, read-out: median of the paired difference in Tmax)?
The Tmax was 0.5 h.

What about the AUC [1] of the same compound?
The AUC was 5970 ng·h/mL.

What about the Vd/F [1] of the same compound?
The Vd/F was 0.803 L/kg.

What about the “response to atomoxetine treatment” value (ADHD; poor metabolizer ADHD patients) of the same compound?
The value was “greater response”.

And the “efficacy in the treatment of ADHD versus placebo” value (ADHD; regardless of CYP2D6 status, extensive or poor metabolizer)?
The value was “robustly better than placebo”.

What about the mean half-life ([2]; majority of patients) of the same compound?
The mean half-life was 4.5 ± 1.1 h.

What about the half-life ([2]; two patients (second class of kinetic disposition)) of the same compound?
Its half-life is 17.1 h and 21 h.
